Tested on: mice with radiation-induced pulmonary fibrosis
Assay: Inhibitory effect on radiation-induced pulmonary fibrosis in mice (micro-CT, H&E and Masson's Trichrome staining)
Type: in vivo, C57BL/6 mice
Conditions: first dose 1 h prior to SBRT (90 Gy), two weeks after radiation, as compared to untreated group
Procedure: Seven-week-old male C57BL/6 mice were divided into groups receiving nintedanib, which is an FDA-approved pulmonary fibrosis inhibitor, dacomitinib, which is an EGFR TKI, and a combination thereof, and orally administered one hour prior to stereotactic body radiation therapy (SBRT) (90 Gy, 4 mm collimator). Two weeks after radiation, the degree of pulmonary fibrosis and the inhibitory effect on radiation-induced lung injury were observed.
The nintedanib group received 60 mg/kg daily, the dacomitinib group received 10 mg/kg daily, and the combination group received 60 mg/kg of nintedanib and 10 mg/kg of dacomitinib. All drugs were orally administered daily. In addition, to analyze the degree of inflammatory response and the degree of fibrosis, H&E staining and Masson's Trichrome staining were performed and the grade of pulmonary fibrosis and the degree of collagen deposition are graphically represented in FIG. 2.

COc1cc2ncnc(Nc3ccc(F)c(Cl)c3)c2cc1NC(=O)/C=C/CN1CCCCC1 [dacomitinib, (E)-N-(4-((3-chloro-4-fluorophenyl)amino)-7-methoxyquinazolin-6-yl)-4-(piperidin-1-yl) but-2-enamide]
degree of pulmonary fibrosis (dacomitinib alone, 10 mg/kg daily oral): reduced fibrosis

COC(=O)c1ccc2c(c1)NC(=O)/C2=C(\Nc1ccc(N(C)C(=O)CN2CCN(C)CC2)cc1)c1ccccc1 [nintedanib, methyl (3Z)-3-{[(4-(methyl[(4-methylpiperazin-1-yl)acetyl]amino}phenyl)amino](phenyl)methylidene)-2-oxo-2,3-dihydro-1H-indole-6-carboxylate]
degree of pulmonary fibrosis (nintedanib alone, 60 mg/kg daily oral): reduced fibrosis

— patent US20260294913A1, “COMBINATION THERAPY OF DACOMITINIB AND NINTEDANIB FOR PREVENTION OR TREATMENT OF PULMONARY FIBROSIS” (KOREA INSTITUTE OF RADIOLOGICAL & MEDICAL SCIENCES, priority 2023, published 2026)
